# In PubChem BioAssay AID1259407 (Chemical Carcinogenesis Research Information System (CCRIS), 2018):
# Activity calls are given as the source filed them. The rule behind the calls is not given here.
# Test system: CCRIS mutagenicity, Ames/micronucleus/aberration tests
# Experiment: CCRIS mutagenicity studies
# [1] = Test System: AMES SALMONELLA TYPHIMURIUM, Strain/Indicator: TA98, Metabolic Activation: HAMSTER, LIVER, S-9, AROCLOR 1254 (10%), Method: PREINCUBATION
# [2] = Test System: AMES SALMONELLA TYPHIMURIUM, Strain/Indicator: TA98, Metabolic Activation: NONE, Method: PREINCUBATION
# [3] = Test System: AMES SALMONELLA TYPHIMURIUM, Strain/Indicator: TA98, Metabolic Activation: NONE, Method: STANDARD PLATE
# [4] = Test System: AMES SALMONELLA TYPHIMURIUM, Strain/Indicator: TA98, Metabolic Activation: RAT, LIVER, S-9, AROCLOR 1254 (10%), Method: PREINCUBATION
# [5] = Test System: AMES SALMONELLA TYPHIMURIUM, Strain/Indicator: TA100, Metabolic Activation: HAMSTER, LIVER, S-9, AROCLOR 1254 (10%), Method: PREINCUBATION
# [6] = Test System: AMES SALMONELLA TYPHIMURIUM, Strain/Indicator: TA100, Metabolic Activation: NONE, Method: PREINCUBATION
# [7] = Test System: AMES SALMONELLA TYPHIMURIUM, Strain/Indicator: TA100, Metabolic Activation: NONE, Method: STANDARD PLATE
# [8] = Test System: AMES SALMONELLA TYPHIMURIUM, Strain/Indicator: TA100, Metabolic Activation: RAT, LIVER, S-9, AROCLOR 1254 (10%), Method: PREINCUBATION
# [9] = Test System: AMES SALMONELLA TYPHIMURIUM, Strain/Indicator: TA1535, Metabolic Activation: HAMSTER, LIVER, S-9, AROCLOR 1254 (10%), Method: PREINCUBATION
# [10] = Test System: AMES SALMONELLA TYPHIMURIUM, Strain/Indicator: TA1535, Metabolic Activation: NONE, Method: PREINCUBATION
# [11] = Test System: AMES SALMONELLA TYPHIMURIUM, Strain/Indicator: TA1535, Metabolic Activation: NONE, Method: STANDARD PLATE
# [12] = Test System: AMES SALMONELLA TYPHIMURIUM, Strain/Indicator: TA1535, Metabolic Activation: RAT, LIVER, S-9, AROCLOR 1254 (10%), Method: PREINCUBATION
# [13] = Test System: AMES SALMONELLA TYPHIMURIUM, Strain/Indicator: TA1537, Metabolic Activation: HAMSTER, LIVER, S-9, AROCLOR 1254 (10%), Method: PREINCUBATION
# [14] = Test System: AMES SALMONELLA TYPHIMURIUM, Strain/Indicator: TA1537, Metabolic Activation: NONE, Method: PREINCUBATION
# [15] = Test System: AMES SALMONELLA TYPHIMURIUM, Strain/Indicator: TA1537, Metabolic Activation: RAT, LIVER, S-9, AROCLOR 1254 (10%), Method: PREINCUBATION
# [16] = Test System: AMES SALMONELLA TYPHIMURIUM, Strain/Indicator: TA1538, Metabolic Activation: NONE, Method: STANDARD PLATE
Structure (SMILES),mutagenic call [1],mutagenic call [2],mutagenic call [3],mutagenic call [4],mutagenic call [5],mutagenic call [6],mutagenic call [7],mutagenic call [8],mutagenic call [9],mutagenic call [10],mutagenic call [11],mutagenic call [12],mutagenic call [13],mutagenic call [14],mutagenic call [15],mutagenic call [16],further results
C=CC(=O)OCCCC,inactive; negative,inactive; negative,inactive; negative,inactive; negative,inactive; negative,inactive; negative,inactive; negative,inactive; negative,inactive; negative,inactive; negative,inactive; negative,inactive; negative,inactive; negative,inactive; negative,inactive; negative,inactive; negative,"mutagenic call (Test System: AMES SALMONELLA TYPHIMURIUM, Strain/Indicator: TA98, Metabolic Activation: RAT, LIVER, S-9, AROCLOR 1254, Method: STANDARD PLATE): inactive; negative; mutagenic call (Test System: AMES SALMONELLA TYPHIMURIUM, Strain/Indicator: TA98, Metabolic Activation: RAT, LIVER, S-9, SODIUM PHENOBARBITAL, Method: STANDARD PLATE): inactive; negative; mutagenic call (Test System: AMES SALMONELLA TYPHIMURIUM, Strain/Indicator: TA100, Metabolic Activation: RAT, LIVER, S-9, AROCLOR 1254, Method: PREINCUBATION): inactive; negative; mutagenic call (Test System: AMES SALMONELLA TYPHIMURIUM, Strain/Indicator: TA100, Metabolic Activation: RAT, LIVER, S-9, AROCLOR 1254, Method: STANDARD PLATE): inactive; negative; mutagenic call (Test System: AMES SALMONELLA TYPHIMURIUM, Strain/Indicator: TA100, Metabolic Activation: RAT, LIVER, S-9, SODIUM PHENOBARBITAL, Method: STANDARD PLATE): inactive; negative; mutagenic call (Test System: AMES SALMONELLA TYPHIMURIUM, Strain/Indicator: TA1535, Metabolic Activation: RAT, LIVER, S-9, AROCLOR 1254, Method: STANDARD PLATE): inactive; negative; mutagenic call (Test System: AMES SALMONELLA TYPHIMURIUM, Strain/Indicator: TA1535, Metabolic Activation: RAT, LIVER, S-9, SODIUM PHENOBARBITAL, Method: STANDARD PLATE): inactive; negative; mutagenic call (Test System: AMES SALMONELLA TYPHIMURIUM, Strain/Indicator: TA1537, Metabolic Activation: NONE, Method: STANDARD PLATE): inactive; negative; mutagenic call (Test System: AMES SALMONELLA TYPHIMURIUM, Strain/Indicator: TA1537, Metabolic Activation: RAT, LIVER, S-9, AROCLOR 1254, Method: STANDARD PLATE): inactive; negative; mutagenic call (Test System: AMES SALMONELLA TYPHIMURIUM, Strain/Indicator: TA1537, Metabolic Activation: RAT, LIVER, S-9, SODIUM PHENOBARBITAL, Method: STANDARD PLATE): inactive; negative; mutagenic call (Test System: AMES SALMONELLA TYPHIMURIUM, Strain/Indicator: TA1538, Metabolic Activation: RAT, LIVER, S-9, AROCLOR 1254, Method: STANDARD PLATE): inactive; negative; mutagenic call (Test System: AMES SALMONELLA TYPHIMURIUM, Strain/Indicator: TA1538, Metabolic Activation: RAT, LIVER, S-9, SODIUM PHENOBARBITAL, Method: STANDARD PLATE): inactive; negative; mutagenic call (Test System: MOUSE LYMPHOMA, Strain/Indicator: L5178Y (TK+/TK-), Metabolic Activation: NONE, Method: SUSPENSION/PLATE): active; positive. reevaluation of results: positive; mutagenic call (Test System: MOUSE LYMPHOMA, Strain/Indicator: L5178Y (TK+/TK-), Metabolic Activation: RAT, LIVER, S-9, AROCLOR 1254, Method: SUSPENSION/PLATE): inactive; negative. reevaluation of results: negative; mutagenic call (Test System: UDS RODENT CELLS, Strain/Indicator: SHE CELL-MEDIATED, Metabolic Activation: NONE, Method: LIQUID SCINTILLATION COUNTING (THYMIDINE INCORPORATION)): inactive; negative"
C[C@H](CCC(=O)O)[C@H]1CC[C@H]2[C@@H]3C(=O)C[C@@H]4CC(=O)CC[C@]4(C)[C@H]3CC[C@]12C,–,inactive; negative,–,–,–,–,–,–,–,–,–,–,–,–,–,–,"mutagenic call (Test System: AMES SALMONELLA TYPHIMURIUM, Strain/Indicator: TA98, Metabolic Activation: NONE, Method: FLUCTUATION TEST): inactive; negative; mutagenic call (Test System: AMES SALMONELLA TYPHIMURIUM, Strain/Indicator: TA98, Metabolic Activation: RAT, LIVER, S-9, PCB, Method: PREINCUBATION): inactive; negative; mutagenic call (Test System: AMES SALMONELLA TYPHIMURIUM, Strain/Indicator: TA100, Metabolic Activation: NONE, Method: FLUCTUATION TEST): inactive; negative"
NC(=O)OC[C@H](O)[C@@H](O)[C@H](N)C(=O)N[C@H](C(=O)[O-])[C@H]1O[C@@H](n2cc(C(=O)[O-])c(=O)[nH]c2=O)[C@H](O)[C@@H]1O.[Zn+2],–,–,–,–,–,–,active; positive,–,–,–,–,–,–,–,–,–,"mutagenic call (Test System: AMES SALMONELLA TYPHIMURIUM, Strain/Indicator: TA100, Metabolic Activation: S-9 MIX, Method: STANDARD PLATE): active; positive"
COC1=CC(=O)c2c(ncc3c2[nH]c2ccccc23)C1=O,–,–,active; positive,–,–,–,active; positive,–,–,–,–,–,–,–,–,–,"mutagenic call (Test System: AMES SALMONELLA TYPHIMURIUM, Strain/Indicator: TA97A, Metabolic Activation: NONE, Method: STANDARD PLATE): active; positive; mutagenic call (Test System: AMES SALMONELLA TYPHIMURIUM, Strain/Indicator: TA97A, Metabolic Activation: RAT LIVER S-9, AROCLOR 1254, Method: STANDARD PLATE): active; positive; mutagenic call (Test System: AMES SALMONELLA TYPHIMURIUM, Strain/Indicator: TA98, Metabolic Activation: RAT LIVER S-9, AROCLOR 1254, Method: STANDARD PLATE): active; positive; mutagenic call (Test System: AMES SALMONELLA TYPHIMURIUM, Strain/Indicator: TA100, Metabolic Activation: RAT LIVER S-9, AROCLOR 1254, Method: STANDARD PLATE): active; positive; mutagenic call (Test System: AMES SALMONELLA TYPHIMURIUM, Strain/Indicator: TA102, Metabolic Activation: NONE, Method: STANDARD PLATE): active; positive; mutagenic call (Test System: AMES SALMONELLA TYPHIMURIUM, Strain/Indicator: TA102, Metabolic Activation: RAT LIVER S-9, AROCLOR 1254, Method: STANDARD PLATE): active; positive"
CC(C)CN,inactive; negative,inactive; negative,–,inactive; negative,inactive; negative,inactive; negative,–,inactive; negative,inactive; negative,inactive; negative,–,inactive; negative,inactive; negative,inactive; negative,inactive; negative,–,–
C=CCCCCCCCCC,–,–,inactive; negative,–,–,–,inactive; negative,–,–,–,inactive; negative,–,–,–,–,inactive; negative,"mutagenic call (Test System: AMES SALMONELLA TYPHIMURIUM, Strain/Indicator: TA98, Metabolic Activation: MOUSE, LIVER, S-9, Method: STANDARD PLATE): inactive; negative; mutagenic call (Test System: AMES SALMONELLA TYPHIMURIUM, Strain/Indicator: TA100, Metabolic Activation: MOUSE, LIVER, S-9, Method: STANDARD PLATE): inactive; negative"
